The numbers were not newly measured in US20020013261A1, “Methods and compositions for promoting angiogenesis using polyethylene glycol (PEG) polymers” (priority 2000, published 2002), which cites them from elsewhere.

This data set has as its system vascularization. As to conditions: purified recombinant protein injected into ischemic skeletal muscle tissue, rabbit chronic limb ischemia.

Consider “basic fibroblast growth factor (bFGF): purified recombinant angiogenic protein”, for which the vascularization result was “modest but significant vascularization”.
